Test results taken from the supplement of paper PMC10307832.

What was measured:
Test in all cases: relative viability (nuclei count vs DMSO), 5 days (fraction); higher = more cells survive
[1] = compound: Cn1cc(-c2cnn3c(N)c(Br)c([C@@H]4CCCNC4)nc23)cn1 + CC1(C)CCC(c2ccc(Cl)cc2)=C(CN2CCN(c3ccc(C(=O)NS(=O)(=O)c4ccc(N[C@H](CCN5CCOCC5)CSc5ccccc5)c(S(=O)(=O)C(F)(F)F)c4)cc3)CC2)C1 [Navitoclax] (partner 0.5 µM)
Outline: (§1)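 Lung cancer cell lines in 1536-well plates were dosed by pin tool the day after seeding, either with one drug alone or with a fixed anchor-drug dose plus five library-drug doses (not always all listed) in √10 steps. After 5 days, cells were fixed and their nuclei stained in one step (final 0.05% Triton X-100, 1% formaldehyde, 1 ug/ml Hoechst), then counted on 4× images. Relative viability is the nuclei count in treated wells divided by that in vehicle wells. Values are medians of duplicate plates.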

[2] = compound: Cn1cc(-c2cnn3c(N)c(Br)c([C@@H]4CCCNC4)nc23)cn1 + C[C@@H](Oc1cc(-c2cnn(C3CCNCC3)c2)cnc1N)c1c(Cl)ccc(F)c1Cl [Crizotinib] (partner 1 µM)
Outline: as §1

[3] = compound: Cn1cc(-c2cnn3c(N)c(Br)c([C@@H]4CCCNC4)nc23)cn1 + Cc1nc(Nc2ncc(C(=O)Nc3c(C)cccc3Cl)s2)cc(N2CCN(CCO)CC2)n1 [Dasatinib] (partner 0.075 µM)
Outline: as §1

[4] = compound: Cn1cc(-c2cnn3c(N)c(Br)c([C@@H]4CCCNC4)nc23)cn1 + O=C(CCCCCCC(=O)Nc1ccccc1)NO [Vorinostat] (partner 1 µM)
Outline: as §1

| Cell Line | relative viability ([1]; first compound 0.05 µM) | relative viability ([1]; first compound 0.1581 µM) | relative viability ([1]; first compound 0.5 µM) | relative viability ([1]; first compound 1.581 µM) | relative viability ([1]; first compound 5 µM) | relative viability ([2]; first compound 0.05 µM) | relative viability ([2]; first compound 0.1581 µM) | relative viability ([2]; first compound 0.5 µM) | relative viability ([2]; first compound 1.581 µM) | relative viability ([2]; first compound 5 µM) | relative viability ([3]; first compound 0.05 µM) | relative viability ([3]; first compound 0.1581 µM) | relative viability ([3]; first compound 0.5 µM) | relative viability ([3]; first compound 1.581 µM) | relative viability ([3]; first compound 5 µM) | relative viability ([4]; first compound 0.05 µM) | relative viability ([4]; first compound 0.1581 µM) | relative viability ([4]; first compound 0.5 µM) | relative viability ([4]; first compound 1.581 µM) | relative viability ([4]; first compound 5 µM) |
| --- | --- | --- | --- | --- | --- | --- | --- | --- | --- | --- | --- | --- | --- | --- | --- | --- | --- | --- | --- | --- |
| NCI-H1975 | 1.21 | 1.14 | 1.01 | 0.908 | 0.989 | 1.01 | 1.05 | 0.781 | 0.764 | 0.714 | 0.393 | 0.355 | 0.409 | 0.331 | 0.346 | 0.793 | 0.715 | 0.686 | 0.547 | 0.548 |
| UMC-11 | 0.316 | 0.268 | 0.298 | 0.271 | 0.229 | 0.736 | 0.504 | 0.623 | 0.392 | 0.262 | 0.536 | 0.424 | 0.32 | 0.312 | 0.341 | 0.331 | 0.313 | 0.345 | 0.334 | 0.291 |
| A-427 | 1.06 | 1 | 0.9 | 0.953 | 0.733 | 0.938 | 1.02 | 0.922 | 0.725 | 0.566 | 0.863 | 0.816 | 0.633 | 0.583 | 0.358 | 0.817 | 0.915 | 0.843 | 0.816 | 0.406 |
| LCLC-97TM1 | 0.462 | 0.439 | 0.325 | 0.343 | 0.46 | 0.34 | 0.658 | 0.581 | 0.483 | 0.228 | 0.838 | 0.96 | 0.833 | 0.82 | 0.853 | 0.67 | 0.95 | 0.936 | 0.582 | 0.433 |
| HCC-15 | 0.803 | 0.792 | 0.635 | 0.626 | 0.669 | 0.926 | 0.98 | 0.877 | 0.722 | 0.652 | 0.706 | 0.633 | 0.511 | 0.464 | 0.483 | 0.922 | 1 | 0.9 | 0.804 | 0.705 |
| NCI-H647 | 1.25 | 1.11 | 0.902 | 0.853 | 0.406 | 1.27 | 1.33 | 0.883 | 0.675 | 0.232 | 0.212 | 0.326 | 0.143 | 0.12 | 0.123 | 0.625 | 0.607 | 0.522 | 0.256 | 0.15 |
| SW 1573 | 0.976 | 1.07 | 1.08 | 0.853 | 1.07 | 0.794 | 1.07 | 0.9 | 0.747 | 0.73 | 0.604 | 0.631 | 0.455 | 0.247 | 0.453 | 0.818 | 0.967 | 0.682 | 0.582 | 0.721 |
| NCI-H1651 | 1.06 | 1.36 | 0.865 | 0.555 | 0.408 | 0.902 | 0.985 | 0.806 | 0.821 | 0.569 | 0.348 | 0.447 | 0.551 | 0.224 | 0.149 | 0.543 | 0.587 | 0.512 | 0.531 | 0.39 |
